According to publication PMC11149339, “Necessity for higher teicoplanin doses in older adults: a multicenter prospective observational study in China” (BMC Geriatrics, 2024):
Where two headings read alike, the source gives them in different places.

Key:
[1] = Thrombocytopenia during teicoplanin treatment; format: in vivo, human
Description: Patients with platelet counts < 100 × 10^9/L at baseline were excluded. Thrombocytopenia was defined as a decrease in the platelet count of > 30% from baseline.

[2] = in vivo, cited from earlier work
Description: There are few studies on the optimal dose regimen and target concentration of teicoplanin in older adults.

[3] = Hepatotoxicity during teicoplanin treatment; format: in vivo, human
Description: Patients with abnormal liver function at baseline were excluded. Hepatotoxicity was defined as an increase in the alanine aminotransferase or aspartate aminotransferase concentration to more than three times the upper limit of the institution’s normal reference ranges.

[4] = Nephrotoxicity (acute kidney injury) during teicoplanin treatment; format: in vivo, human
Description: Patients with renal impairment at baseline were excluded. Nephrotoxicity was defined as acute renal impairment indicated by a serum creatinine increase of > 50% from baseline.

[5] = Therapeutic drug monitoring of teicoplanin trough concentration (Cmin) during treatment, LC-MS/MS; format: in vivo, human; conditions: for patients with TDM 10–20 mg/L At 8-14d, N (%) / patients with TDM < 10 mg/L At 8-14d, N (%) / patients with TDM > 20 mg/L At 8-14d, N (%) / TDM At 8-14d (teicoplanin trough concentration): 8–14 days after first dose; for TDM At 8-14d (teicoplanin trough concentration) / TDM At 3d (teicoplanin trough concentration): median [IQR], LC-MS/MS; for patients with TDM 10–20 mg/L At 3d, N (%) / patients with TDM < 10 mg/L At 3d, N (%) / patients with TDM > 20 mg/L At 3d, N (%) / TDM At 3d (teicoplanin trough concentration): 3 days after first dose
Description: Teicoplanin (Targocid, Sanofi, Dublin, Ireland) was administered intravenously for 30 min. The prescribed dose regimens were at the discretion of treating physicians, and the recommended regimens were not always followed.
Blood samples (5 mL) were collected from the elbow into ethylenediaminetetraacetic acid-containing Vacutainers® (Becton Dickinson, Milan, Italy) in the morning before teicoplanin administration and after drug withdrawal. Samples were promptly refrigerated and centrifuged at 2500 × g for 10 min before 2 mL of supernatant was preserved at -20 °C for subsequent analysis. Teicoplanin concentrations were determined using liquid chromatography-tandem mass spectrometry. The linear range of the method was 1.0–100.0 mg/L, and the lower limit of quantification was 1.0 mg/L. The relative standard deviation of intra- and inter-batch precision was ≤ 10%.
Teicoplanin concentrations were dynamically monitored. Concentrations at 3, ≤ 7, 8–14, and ≥ 15 days after the first dose and within 2 h of the next scheduled dose were recorded as TDM3d, TDM≤7d, TDM8-14d, and TDM≥15d, respectively. Concentrations at 3, ≤ 7, 8–14, and ≥ 15 days after the last teicoplanin dose (withdrawal) were recorded as TDMw3d, TDMw≤7d, TDMw8-14d, and TDMw≥15d. respectively (Fig. 1a). The Cmin target was ≥ 10 mg/L [6, 7, 23]; a concentration < 10 mg/L was considered suboptimal. Average TDM (TDMa) was defined as the mean Cmin after 3 days of treatment.

[6] = LR-A + MR-A (200 mg once daily, then 200 mg once daily)
[7] = LR-B + MR-A (400 mg once daily, then 200 mg once daily)
[8] = LR-B + MR-B (400 mg once daily, then 400 mg once daily)
[9] = LR-C + MR-B (400 mg at 12-h intervals, then 400 mg once daily)
[10] = LR-C + MR-C (400 mg at 12-h intervals, then 400 mg twice daily)

Which incidence of thrombocytopenia ([1]; TDMa < 10 mg/L (16/49)) does the source give for Teicoplanin here?
Its incidence of thrombocytopenia is 32.7%.

What about the incidence of thrombocytopenia ([1]; TDMa = 10–20 mg/L (12/42)) of the same substance?
Its incidence of thrombocytopenia is 28.6%.

And the incidence of thrombocytopenia ([1]; TDMa = 20–40 mg/L (7/20))?
The incidence of thrombocytopenia was 35.0%.

What about the incidence of thrombocytopenia ([1]; all evaluable patients (35/111), platelet count decrease > 30% from baseline) of the same substance?
Its incidence of thrombocytopenia is 31.5%.

What about the average elimination half-life ([2]; human) of the same substance?
The average elimination half-life was 107 h.

And the half-life of teicoplanin ([2]; human)?
Its half-life of teicoplanin is 71 to 80 h.

And the half-life of teicoplanin [2]?
Its half-life of teicoplanin is 71 to 163 h.

And the incidence of hepatotoxicity ([3]; TDMa < 10 mg/L (2/65))?
Its incidence of hepatotoxicity is 3.1%.

And the incidence of hepatotoxicity ([3]; TDMa = 10–20 mg/L (3/57))?
The incidence of hepatotoxicity was 5.3%.

What about the incidence of hepatotoxicity ([3]; TDMa = 20–40 mg/L (1/26)) of the same substance?
The incidence of hepatotoxicity was 3.8%.

And the incidence of hepatotoxicity ([3]; all evaluable patients (6/148), ALT or AST more than three times the upper limit of normal)?
Its incidence of hepatotoxicity is 4.1%.

And the “incidence of acute kidney injury (AKI) / nephrotoxicity” value (from here on “incidence … (AKI) / nephrotoxicity”) ([4]; TDMa < 10 mg/L (5/52))?
Its value is 9.6%.

What about the “incidence … (AKI) / nephrotoxicity” value ([4]; TDMa = 10–20 mg/L (6/50)) of the same substance?
The value was 12.0%.

What about the “incidence … (AKI) / nephrotoxicity” value ([4]; TDMa = 20–40 mg/L (4/18)) of the same substance?
The value was 22.2%.

What about the “incidence … (AKI) / nephrotoxicity” value ([4]; all evaluable patients (15/120), serum creatinine increase > 50% from baseline) of the same substance?
The value was 12.5%.

What about the “patients with TDM 10–20 mg/L At 8-14d, N (%)” value ([5]; LR-A + MR-A) of the same substance?
Its value is 20(41.7).

And the “patients with TDM < 10 mg/L At 8-14d, N (%)” value ([5]; LR-A + MR-A)?
The value was 22(45.8).

And the “patients with TDM > 20 mg/L At 8-14d, N (%)” value ([5]; LR-A + MR-A)?
Its value is 6(12.5).

What about the “TDM At 8-14d (teicoplanin trough concentration)” value (shortened to “TDM At 8-14d”) [5, 6] of the same substance?
The value was 10.4[7.3,17.8] mg/L.

And the “patients with TDM 10–20 mg/L At 8-14d, N (%)” value ([5]; LR-B + MR-A)?
The value was 25(53.2).

What about the “patients with TDM < 10 mg/L At 8-14d, N (%)” value ([5]; LR-B + MR-A) of the same substance?
The value was 16(34.0).

And the “patients with TDM > 20 mg/L At 8-14d, N (%)” value ([5]; LR-B + MR-A)?
The value was 6(12.8).

And the “TDM At 8-14d” value [5, 7]?
The value was 11.0[7.3,15.4] mg/L.

And the “patients with TDM 10–20 mg/L At 8-14d, N (%)” value ([5]; LR-B + MR-B)?
The value was 2(50.0).

And the “patients with TDM < 10 mg/L At 8-14d, N (%)” value ([5]; LR-B + MR-B)?
The value was 1(25.0).

What about the “patients with TDM > 20 mg/L At 8-14d, N (%)” value ([5]; LR-B + MR-B) of the same substance?
The value was 1(25.0).

And the “TDM At 8-14d” value [5, 8]?
Its value is 12.8[9.0,21.5] mg/L.

What about the “patients with TDM 10–20 mg/L At 8-14d, N (%)” value ([5]; LR-C + MR-B) of the same substance?
Its value is 8(57.2).

And the “patients with TDM < 10 mg/L At 8-14d, N (%)” value ([5]; LR-C + MR-B)?
The value was 5(35.7).

And the “patients with TDM > 20 mg/L At 8-14d, N (%)” value ([5]; LR-C + MR-B)?
The value was 1(7.1).

What about the “TDM At 8-14d” value [5, 9] of the same substance?
Its value is 14.16[8.9,16.4] mg/L.

What about the “patients with TDM 10–20 mg/L At 8-14d, N (%)” value ([5]; LR-C + MR-C) of the same substance?
Its value is 3(37.5).

What about the “patients with TDM < 10 mg/L At 8-14d, N (%)” value ([5]; LR-C + MR-C) of the same substance?
The value was 0.

And the “patients with TDM > 20 mg/L At 8-14d, N (%)” value ([5]; LR-C + MR-C)?
Its value is 5(62.5).

And the “TDM At 8-14d” value [5, 10]?
Its value is 21.2[16.8,27.4] mg/L.

And the “TDM At 8-14d” value ([5]; all patients (N = 204), iv)?
Its value is 11.1[8.5,17.6] mg/L.

And the “patients with TDM 10–20 mg/L At 3d, N (%)” value ([5]; LR-A + MR-A)?
The value was 0.

And the “patients with TDM < 10 mg/L At 3d, N (%)” value ([5]; LR-A + MR-A)?
The value was 16(100).

And the “patients with TDM > 20 mg/L At 3d, N (%)” value ([5]; LR-A + MR-A)?
The value was 0.

What about the “TDM At 3d (teicoplanin trough concentration)” value (“TDM At 3d” below) [5, 6] of the same substance?
Its value is 5.4[3.0,7.7] mg/L.

What about the “patients with TDM 10–20 mg/L At 3d, N (%)” value ([5]; LR-B + MR-A) of the same substance?
Its value is 2(10.5).

And the “patients with TDM < 10 mg/L At 3d, N (%)” value ([5]; LR-B + MR-A)?
Its value is 17(89.5).

What about the “patients with TDM > 20 mg/L At 3d, N (%)” value ([5]; LR-B + MR-A) of the same substance?
The value was 0.

And the “TDM At 3d” value [5, 7]?
The value was 6.3[4.4,7.9] mg/L.

And the “patients with TDM 10–20 mg/L At 3d, N (%)” value ([5]; LR-B + MR-B)?
Its value is 1(16.7).

And the “patients with TDM < 10 mg/L At 3d, N (%)” value ([5]; LR-B + MR-B)?
The value was 3(50.0).

And the “patients with TDM > 20 mg/L At 3d, N (%)” value ([5]; LR-B + MR-B)?
Its value is 2(33.3).

And the “TDM At 3d” value [5, 8]?
Its value is 11.1[8.1,22.2] mg/L.

And the “patients with TDM 10–20 mg/L At 3d, N (%)” value ([5]; LR-C + MR-B)?
The value was 5(62.5).

What about the “patients with TDM < 10 mg/L At 3d, N (%)” value ([5]; LR-C + MR-B) of the same substance?
The value was 3(37.5).

What about the “patients with TDM > 20 mg/L At 3d, N (%)” value ([5]; LR-C + MR-B) of the same substance?
Its value is 0.

And the “TDM At 3d” value [5, 9]?
The value was 11.0[7.0,13.3] mg/L.

And the “patients with TDM 10–20 mg/L At 3d, N (%)” value ([5]; LR-C + MR-C)?
Its value is 7(50.0).

And the “patients with TDM < 10 mg/L At 3d, N (%)” value ([5]; LR-C + MR-C)?
Its value is 3(21.4).

And the “patients with TDM > 20 mg/L At 3d, N (%)” value ([5]; LR-C + MR-C)?
Its value is 4(28.6).

What about the “TDM At 3d” value [5, 10] of the same substance?
The value was 14.4[10.7,21.1] mg/L.

And the “TDM At 3d” value ([5]; all patients (N = 204), iv)?
The value was 7.7[5.6,12.4] mg/L.

And the “target concentration achievement rate (≥ 10 mg/L)” value ([5]; TDM8-14d, LR-A + MR-A regimen)?
Its value is 54.2%.
